Consider 28 molecules from US8399465B2, “Compounds with two fused bicyclic heteroaryl moieties as modulators of leukotriene A4 hydrolase” (Janssen Pharmaceutica NV, priority 2009, dated 2013).

Molecules are shown by their SMILES. Counter-ions that a name gives are not always drawn.

The assay has as its target T1, recombinant human LTA4 hydrolase (rhLTA4H) (Homo sapiens, UniProt P09960).
T1 construct: made in house; host or cells: Spodoptera frugiperda (Sf-9) cells, baculovirus (pFastBac1)
T1 sequence (P09960 1-611): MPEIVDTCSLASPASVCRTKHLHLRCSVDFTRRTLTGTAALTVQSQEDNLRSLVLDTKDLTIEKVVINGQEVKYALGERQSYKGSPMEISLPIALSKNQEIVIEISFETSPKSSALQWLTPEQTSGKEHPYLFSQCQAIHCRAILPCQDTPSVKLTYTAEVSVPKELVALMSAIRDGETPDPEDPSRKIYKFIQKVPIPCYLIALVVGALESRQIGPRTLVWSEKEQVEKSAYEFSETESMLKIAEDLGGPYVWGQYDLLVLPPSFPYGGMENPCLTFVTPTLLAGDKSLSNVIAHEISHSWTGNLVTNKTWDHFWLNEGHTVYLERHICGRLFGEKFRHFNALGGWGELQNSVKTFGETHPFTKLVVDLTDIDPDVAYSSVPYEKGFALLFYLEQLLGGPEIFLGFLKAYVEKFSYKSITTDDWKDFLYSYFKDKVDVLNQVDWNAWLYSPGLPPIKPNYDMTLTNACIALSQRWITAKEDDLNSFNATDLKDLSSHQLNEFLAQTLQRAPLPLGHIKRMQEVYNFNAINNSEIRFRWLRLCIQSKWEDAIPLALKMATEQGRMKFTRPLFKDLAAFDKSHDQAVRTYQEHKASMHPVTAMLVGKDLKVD
As to the kind of experiment: Recombinant human LTA4 hydrolase assay for LTA4 hydrolase inhibitor activity. It is filed as biochemical. The conditions noted are these: rhLTA4H, LTB4 by immunoassay; single determination or average of two or more; mark after value = form tested: ′ free base, ″ hydrochloride, ^ formate; read-out: IC50. The method, boiled down:
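Baculovirus/Sf-9-expressed human LTA4H (10 ng) was preincubated 10 min at rt with compound in assay buffer (10% DMSO in compound dilution), then reacted 30 min at rt with LTA4 free acid made from its methyl ester. LTB4 produced was measured by ELISA after dilution; IC50 from non-linear regression, single or averaged determinations.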
With `O=C1Cc2cc(Cl)ccc2N1Cc1coc2cc(Oc3nc4ncccc4s3)ccc12` [Example 401, 5-Chloro-1-[6-(thiazolo[4,5-b]pyridin-2-yloxy)-benzofuran-3-ylmethyl]-1,3-dihydro-indol-2-one], the IC50 came out at 1020 nM. Turning to `O=C(NCc1coc2cc(Oc3nc4ncccc4s3)ccc12)[C@@H]1C[C@@H]2CC[C@H]1C2` (relative stereo) [Example 389, endo-Bicyclo[2.2.1]heptane-2-carboxylic acid [6-(thiazolo[4,5-b]pyridin-2-yloxy)-benzofuran-3-ylmethyl]-amide], the IC50 was found to be 120 nM. As to `O=C(O)c1ccc(C(=O)NCc2coc3cc(Oc4nc5ncccc5s4)ccc23)cc1` [Example 396, N-[6-(Thiazolo[4,5-b]pyridin-2-yloxy)-benzofuran-3-ylmethyl]-terephthalamic acid], the IC50 came to 52 nM. The same measure for `FC1CCN(Cc2cc3cc(Oc4nc5ncccc5s4)ccc3o2)CC1` [Example 111, 2-[2-(4-Fluoro-piperidin-1-ylmethyl)-benzofuran-5-yloxy]-thiazolo[4,5-b]pyridine]: 281 nM. As to `c1cnc2nc(Oc3ccc4cc(CN5CCOCC5)oc4c3)sc2c1` [Example 115, 2-(2-Morpholin-4-ylmethyl-benzofuran-6-yloxy)-thiazolo[4,5-b]pyridine], the IC50 was 327 nM. Consider `CC(=O)N[C@H]1C[C@H]2CC[C@@H](C1)N2Cc1cc2ccc(Oc3nc4cccnc4s3)cc2o1` [Example 126, meso-endo-N-{8-[6-(Thiazolo[5,4-b]pyridin-2-yloxy)-benzofuran-2-ylmethyl]-8-aza-bicyclo[3.2.1]oct-3-yl}-acetamide], for which the IC50 turned out to be 610 nM. With `O=C(c1coc2cc(Oc3nc4ncccc4s3)ccc12)N1CCC2CCCCC2C1` (stereo not shown) [Example 385, (Octahydro-isoquinolin-2-yl)-[6-(thiazolo[4,5-b]pyridin-2-yloxy)-benzofuran-3-yl]-methanone] the figure was 1530 nM; with `Cn1cc(CN2CCOCC2)c2ccc(Oc3nc4ccccc4s3)cc21` [Example 61, 2-(1-Methyl-3-morpholin-4-ylmethyl-1H-indol-6-yloxy)-benzothiazole], 610 nM.

For `O=C(O)CC1CCN(Cc2cc3ccc(Oc4nc5ccccc5s4)cc3o2)CC1` [Example 78, {1-[6-(Benzothiazol-2-yloxy)-benzofuran-2-ylmethyl]-piperidin-4-yl}-acetic acid formate], the IC50 was 226 nM.

On to `CCOC(=O)C1CCN(CCc2coc3cc(Oc4nc5ccccc5s4)ccc23)CC1` [Example 149, 1-{2-[6-(Benzothiazol-2-yloxy)-benzofuran-3-yl]-ethyl}-piperidine-4-carboxylic acid ethyl ester], for which the IC50 turned out to be 170 nM. As to `CC(=O)N1C[C@@H]2C[C@H]1CN2Cc1coc2cc(Oc3nc4cnccc4s3)ccc12` [Example 222, (1S,4S)-1-{5-[6-(Thiazolo[4,5-c]pyridin-2-yloxy)-benzofuran-3-ylmethyl]-2,5-diaza-bicyclo[2.2.1]hept-2-yl}-ethanone], the half-inhibitory concentration (IC50) amounted to 365 nM.

For `Fc1cnc2sc(Oc3ccc4c(CN5CCOCC5)c[nH]c4c3)nc2c1` [Example 60, 6-Fluoro-2-(3-morpholin-4-ylmethyl-1H-indol-6-yloxy)-thiazolo[5,4-b]pyridine], the IC50 is 169 nM. With `NC(=O)N1C[C@@H]2C[C@H]1CN2Cc1cc2ncc(Oc3nc4ncccc4s3)cc2o1` [Example 337, (1S,4S)-5-[6-(Thiazolo[4,5-b]pyridin-2-yloxy)-furo[3,2-b]pyridin-2-ylmethyl]-2,5-diaza-bicyclo[2.2.1]heptane-2-carboxylic acid amide formate] the figure was 270 nM; with `CC(=O)N1CCN(Cc2cc3ncc(Oc4nc5ncccc5s4)cc3o2)CC1` [Example 343, 1-{4-[6-(Thiazolo[4,5-b]pyridin-2-yloxy)-furo[3,2-b]pyridin-2-ylmethyl]-piperazin-1-yl}-ethanone formate], 250 nM; with `CC(=O)N1C[C@@H]2C[C@H]1CN2Cc1cc2ccc(Oc3nc4cccnc4s3)cc2o1` [Example 122, (1S,4S)-1-{5-[6-(Thiazolo[5,4-b]pyridin-2-yloxy)-benzofuran-2-ylmethyl]-2,5-diaza-bicyclo[2.2.1]hept-2-yl}-ethanone], 3430 nM. The same measure for `CC(=O)N(Cc1coc2cc(Oc3nc4ncccc4s3)ccc12)[C@H]1CN2CCC1CC2` [Example 404, (R)—N-(1-Aza-bicyclo[2.2.2]oct-3-yl)-N-[6-(thiazolo[4,5-b]pyridin-2-yloxy)-benzofuran-3-ylmethyl]-acetamide formate]: 2 nM; for `CC(C)(C)OC(=O)C1CCN(Cc2cc3ccc(Oc4nc5ncccc5s4)cc3o2)CC1` [Example 225, 1-[6-(Thiazolo[4,5-b]pyridin-2-yloxy)-benzofuran-2-ylmethyl]-piperidine-4-carboxylic acid tert-butyl ester]: 765 nM. As to `CN(Cc1ccccc1)C(=O)c1cc2cc(Oc3nc4ncccc4s3)ccc2o1` [Example 365, 5-(Thiazolo[4,5-b]pyridin-2-yloxy)-benzofuran-2-carboxylic acid benzyl-methyl-amide], the IC50 is 110 nM. Consider `NC(=O)N1C[C@@H]2C[C@H]1CN2Cc1cc2ccc(Oc3nc4ncccc4s3)cc2o1` [Example 117, (1S,4S)-5-[6-(Thiazolo[4,5-b]pyridin-2-yloxy)-benzofuran-2-ylmethyl]-2,5-diaza-bicyclo[2.2.1]heptane-2-carboxylic acid amide], for which the IC50 is 118 nM. On to `CCn1c(CN2CCCCC2)cc2cc(Oc3nc4ccccc4s3)ccc21` [Example 62, 2-(1-Ethyl-2-piperidin-1-ylmethyl-1H-indol-5-yloxy)-benzothiazole], for which the IC50 worked out at 382 nM.

For the molecule `CC(=O)N[C@@H]1C[C@H]2CC[C@@H](C1)N2Cc1cc2ncc(Oc3nc4ncccc4s3)cc2o1` [Example 336, meso-exo-N-{8-[6-(Thiazolo[4,5-b]pyridin-2-yloxy)-furo[3,2-b]pyridin-2-ylmethyl]-8-aza-bicyclo[3.2.1]oct-3-yl}-acetamide], the IC50 amounted to 110 nM. With `CC(=O)N[C@H]1C[C@H]2CC[C@@H](C1)N2CCc1coc2cc(Oc3nc4ncccc4s3)ccc12` [Example 131, meso-endo-N-(8-{2-[6-(Thiazolo[4,5-b]pyridin-2-yloxy)-benzofuran-3-yl]-ethyl}-8-aza-bicyclo[3.2.1]oct-3-yl)acetamide] the figure was 5 nM; with `c1ccc2sc(Oc3ccc4[nH]cc(CN5CCCC5)c4c3)nc2c1` [Example 9, 2-(3-Pyrrolidin-1-ylmethyl-1H-indol-5-yloxy)-benzothiazole], 591 nM.

Regarding `c1ccc(OCCNCc2coc3cc(Oc4nc5ncccc5s4)ccc23)cc1` [Example 319, (2-Phenoxy-ethyl)-[6-(thiazolo[4,5-b]pyridin-2-yloxy)-benzofuran-3-ylmethyl]-amine formate], the IC50 is 52 nM.

For `c1ccc2sc(Oc3ccc4cc(CN5CCOCC5)sc4c3)nc2c1` [Example 133, (2-Morpholin-4-ylmethyl-benzo[b]thiophen-6-yloxy)-benzothiazole], the IC50 turned out to be 473 nM. For `CC(=O)N1C[C@H]2CC[C@@H](C1)N2CCc1coc2cc(Oc3nc4ncccc4s3)ccc12` [Example 130, meso-1-(8-{2-[6-(Thiazolo[4,5-b]pyridin-2-yloxy)-benzofuran-3-yl]-ethyl}-3,8-diaza-bicyclo[3.2.1]oct-3-yl)-ethanone], the IC50 worked out at 5 nM.

In the case of `c1ccc2c(c1)CCN(Cc1coc3cc(Oc4nc5ncccc5s4)ccc13)C2` [Example 293, 2-[6-(Thiazolo[4,5-b]pyridin-2-yloxy)-benzofuran-3-ylmethyl]-1,2,3,4-tetrahydro-isoquinoline formate], the IC50 came out at 19 nM. In the case of `O=C1CCCN1C1CCN(Cc2cc3ncc(Oc4nc5ncccc5s4)cc3o2)CC1` [Example 341, 1-{1-[6-(Thiazolo[4,5-b]pyridin-2-yloxy)-furo[3,2-b]pyridin-2-ylmethyl]-piperidin-4-yl}-pyrrolidin-2-one], the half-inhibitory concentration (IC50) was 470 nM.
